Measurements published in patent publication US20030099613A1, “Viral replicons and viruses dependent on inducing agents” (priority 1999, published 2003).

System: dox-dependent SWS virus
Experiment: Sensitivity of HIV-rtTA (SWS) replication to antiretroviral drugs in SupT1 cells
Assay type: cell-based, HIV-1
Conditions: infected SupT1 cells maintained in the presence of dox
Protocol: FIG. 4. Replication of HIV-rtTA can be turned on and turned off. These experiments were performed with the SWS virus, but similar results have been obtained with the other HIV-rtTA variants. The SWS virus was used (2200 ng CA-p24) to infect 6×10^6 SupT1 cells at day 0. […] In panel B, the effect of delayed addition of dox (1000 ng/ml) was analyzed at day 3 after infection. In panel C, the infected cells were grown in 1000 ng/ml dox for 3 days, at which point the cells were washed and incubated in the absence or presence of dox. In panel D, infected cells were maintained in the presence of dox and the effect of the Protease-inhibitor Saquinavir (200 nM) and the RT-inhibitor AZT ([…]) was tested.
As an additional safety test, the sensitivity of the HIV-rtTA virus to antiretroviral drugs that are in current clinical use was analyzed. Because the basic set of viral genes in HIV-rtTA was not altered, including the genes encoding Protease (Pro) and Reverse Transcriptase (RT), these viruses are expected to remain fully sensitive to well-known drugs that target these essential enzymes.

Structure (SMILES) | inhibition of SWS virus replication (AZT 1 μg) | inhibition of SWS virus replication (Saquinavir 200 nM)
Cc1cn([C@H]2C[C@H](N=[N+]=[N-])[C@@H](CO)O2)c(=O)[nH]c1=O [AZT, 3′-azido, 3′-deoxythymidine] | inhibited efficiently | 
CC(C)(C)NC(=O)[C@@H]1C[C@@H]2CCCC[C@@H]2CN1C[C@@H](O)[C@H](Cc1ccccc1)NC(=O)[C@H](CC(N)=O)NC(=O)c1ccc2ccccc2n1 [Saquinavir] |  | inhibited efficiently
